Experiments:
[1] = test system: Mycosphaerella arachidis Syn. Cercospora arachidicola; assay: Mycosphaerella arachidis liquid culture growth inhibition (microtiter plate, PDB, photometric); assay type: cell-based; details: read-out: Observed Activity (%); for inhibition at 10 ppm: single compound 10 ppm; for inhibition at 20 ppm: single compound 20 ppm; for inhibition at 0.625 ppm: single compound 0.625 ppm; for inhibition at 1.25 ppm: single compound 1.25 ppm; for inhibition at 2.5 ppm: single compound 2.5 ppm; for inhibition at 5 ppm: single compound 5 ppm
Experimental: Mycosphaerella arachidis Syn. Cercospora arachidicola (Brown Leaf Spot of Peanut): Conidia of the fungus from cryogenic storage were directly mixed into nutrient broth (PDB potato dextrose broth). A DMSO solution of the test compounds was placed into a microtiter plate (96-well format) and the nutrient broth containing the fungal spores was added to it. The test plates were incubated at 24° C. and the inhibition of growth was determined photometrically after 5-6 days at 620 nm.

[2] = test system: Septoria Glycines; assay: Septoria glycines liquid culture growth inhibition (microtiter plate, PDB, visual); assay type: cell-based; details: read-out: Observed Activity (%)
Experimental: (§1) Septoria Glycines (Brown Spot): Conidia of the fungus from cryogenic storage were directly mixed into nutrient broth (PDB potato dextrose broth). A DMSO solution of the test compounds was placed into a microtiter plate (96-well format) and the nutrient broth containing the fungal spores was added to it.

[3] = test system: Septoria tritici; assay: Septoria tritici liquid culture growth inhibition (microtiter plate, PDB, photometric); assay type: cell-based; details: Zymoseptoria tritici, read-out: Observed Activity (%)
Experimental: as §1, with “tritici (Leaf Blotch):” for “Glycines (Brown Spot):”

[4] = test system: Phakopsora pachyrhizi; assay: Phakopsora pachyrhizi soybean rust, treated plants / leaf disk test; assay type: in vivo; details: foliar, read-out: Observed Activity (%); for inhibition at 15 g/ha: single compound 15 g/ha
Experimental: Phakopsora pachyrhizi (Soybean Rust):
Whole soybean plants are treated with the recited active ingredients 4 weeks after planting. 1 day after spraying leaf disks are cut from the first trifoliate leaf. Five repetitions at each rate are conducted. The leaf disks are inoculated with Phakopsora pachyrhizi (Asian soybean rust) one day after treatment. Evaluation of the leaf disks is conducted 11 to 14 days after inoculation and the activity is derived from the relation of the treated vs untreated, infested check. The rates of the active ingredients used are given in Table as g active ingredient (a.i.)/ha.

## CNC(=O)C(F)(F)c1ccc(-c2noc(C(F)(F)F)n2)cc1 [2,2-difluoro-N-methyl-2-[4-[5-(trifluoromethyl)-1,2,4-oxadiazol-3-yl]phenyl]acetamide]
[1]
  inhibition at 10 ppm: 20%
  inhibition at 20 ppm: 50%

## N#Cc1ccc(Oc2ccc(C(F)(F)C(O)(Cn3nc[nH]c3=S)c3ccc(F)cc3F)nc2)cc1 (stereo not drawn) [4-[[6-[2-(2,4-Difluorophenyl)-1,1-difluoro-2-hydroxy-3-(5-thioxo-4H-1,2,4-triazol-1-yl)propyl]-3-pyridyl]oxy]benzonitrile]
[2]; single compound 0.25 ppm
  inhibition at 0.25 ppm: 20%
[2]; single compound 0.5 ppm
  inhibition at 0.5 ppm: 20%

## Cc1cc(C2=NC(C)(C)C(F)(F)c3ccccc32)cnc1C [Compound A-1.1, 1-(5,6-dimethyl-3-pyridyl)-4,4-difluoro-3,3-dimethyl-isoquinoline]
[2]; single compound 5 ppm
  inhibition at 5 ppm: 0%
[2]; single compound 10 ppm
  inhibition at 10 ppm: 20%
[2]; single compound 20 ppm
  inhibition at 20 ppm: 50%
[3]; single compound 1.25 ppm
  inhibition at 1.25 ppm: 0%
[3]; single compound 2.5 ppm
  inhibition at 2.5 ppm: 0%
[3]; single compound 5 ppm
  inhibition at 5 ppm: 20%
[3]; single compound 10 ppm
  inhibition at 10 ppm: 50%
[3]; single compound 20 ppm
  inhibition at 20 ppm: 70%
[4]
  inhibition at 15 g/ha: 2%
[4]; single compound 30 g/ha
  inhibition at 30 g/ha: 4%
[1]
  inhibition at 0.625 ppm: 0%
  inhibition at 1.25 ppm: 0%
  inhibition at 2.5 ppm: 0%
  inhibition at 5 ppm: 0%
  inhibition at 10 ppm: 0%
  inhibition at 20 ppm: 20%

## Cc1cc(C2=NC(C)(C)C(F)(F)c3ccccc32)cnc1C(F)F [Compound A-1.2, 1-[6-(difluoromethyl)-5-methyl-3-pyridyl]-4,4-difluoro-3,3-dimethyl-isoquinoline]
[4]
  inhibition at 15 g/ha: 12%
[1]
  inhibition at 0.625 ppm: 0%
  inhibition at 1.25 ppm: 0%
  inhibition at 2.5 ppm: 0%
  inhibition at 5 ppm: 0%
  inhibition at 10 ppm: 20%
  inhibition at 20 ppm: 50%

## O=C(Nc1ccccc1F)c1ccc(-c2noc(C(F)(F)F)n2)cc1 [N-(2-fluorophenyl)-4-[5-(trifluoromethyl)-1,2,4-oxadiazol-3-yl]benzamide]
[4]; single compound 0.75 g/ha
  inhibition at 0.75 g/ha: 27%
[4]; single compound 1.5 g/ha
  inhibition at 1.5 g/ha: 45%

## CNC(=S)c1ccc(-c2noc(C(F)(F)F)n2)cc1 [N-methyl-4-[5-(trifluoromethyl)-1,2,4-oxadiazol-3-yl]benzenecarbothioamide]
[3]; single compound 6 ppm
  inhibition at 6 ppm: 50%
[1]; single compound 3 ppm
  inhibition at 3 ppm: 70%
[1]; single compound 6 ppm
  inhibition at 6 ppm: 90%

## CCN(C)C=Nc1cc(C)c(Oc2ccccc2F)cc1Cl [N′-[2-chloro-4-(2-fluorophenoxy)-5-methyl-phenyl]-N-ethyl-N-methyl-formamidine]
[4]; single compound 1 g/ha
  inhibition at 1 g/ha: 4%
[4]; single compound 2 g/ha
  inhibition at 2 g/ha: 13%
[1]; single compound 1 ppm
  inhibition at 1 ppm: 70%
[1]; single compound 2 ppm
  inhibition at 2 ppm: 90%

From patent US20230371512A1, “FUNGICIDAL COMPOSITIONS” (SYNGENTA CROP PROTECTION AG, priority 2020, published 2023)
